# Data published in patent EP3293174A1, “CRYSTALLINE SALTS OF BETRIXABAN” (SANDOZ AG, priority 2016, dated 2018).
# Counter-ions that a name gives are not always drawn.
# Key:
# Assay type in all cases: physicochemical
# [1] = Gravimetric moisture sorption/desorption (GMSD) isotherms; conditions: for hygroscopicity according to the GMSD isotherms: 25 ± 0.1°C, 0 to 95% RH; for water: when measured at 0 to 95% RH and 25 ± 0.1°C
# Experimental: Gravimetric moisture sorption/desorption
# Gravimetric moisture sorption/desorption (GMSD) isotherms were recorded with an SPSx-1µ moisture sorption analyzer (ProUmid, Ulm). The measurement cycle was started at ambient relative humidity (RH) of 30%. Relative humidity was then decreased to 5% RH in 5% steps, followed by a further decrease to 3% RH and to 0% RH. For this isotherm, as black filled square with a white x inside is used in the respective figures. Afterwards RH was increased from 0% to 95% RH in a sorption cycle and decreased to 0 % in a desorption cycle in 5% steps. Finally RH was increased to 40% RH in 5% steps. As to the isotherm obtained by the last step, a black filled square with a white star inside is used as symbol in the respective figures.
# The time per step was set to a minimum of 2 hours and a maximum of 6 hours. If an equilibrium condition with a constant mass of ± 0.01 % within 1 hour was reached before the maximum time for all examined samples the sequential humidity step was applied before the maximum time of 6 hours. If no equilibrium was achieved the consecutive humidity step was applied after the maximum time of 6 hours. The temperature was 25 ± 0.1°C.
# [2] = Determination of the moisture stability (climate chamber, PXRD analysis)
# Experimental: Powder X-ray diffraction (PXRD) was performed with a PANalytical X'Pert PRO diffractometer equipped with a theta/theta coupled goniometer in transmission geometry, Cu-Kα1,2 radiation (wavelength 0.15419 nm) with a focusing mirror and a solid state PIXcel detector. Diffractograms were recorded at a tube voltage of 45 kV and a tube current of 40 mA, applying a stepsize of 0.013° 2-Theta with 40s per step (255 channels) in the angular range of 2° to 40° 2-Theta at ambient conditions. Determination of the moisture stability Moisture stability at accelerated stability conditions was performed in a Memmert constant climate chamber HPP110.
# [3] = Determination of the solubility in water (solvent addition technique); conditions: 25 °C, thermodynamic from solid, in water at 25°C, estimated by solvent addition
# Experimental: About 10 mg of crystalline betrixaban salt were weighed out into a vial. Water was added to the vial in aliquots of 500 µL and 200 µL until the salt was dissolved. In between the water additions the samples was sonicated for about 5 min, followed by shaking at 25°C for about 10 to 15 min.
# [4] = listed as crystalline form B of betrixaban hydrobromide, hydrobromide
# [5] = 8 weeks at 40°C and a relative humidity of 75%
# [6] = listed as crystalline form A of betrixaban hydrochloride, hydrochloride
"hygroscopicity according to the GMSD isotherms [1, 4]","water [1, 4]","PXRD pattern after storage compared with the initial pattern (moisture stability test) [2, 5]",PXRD pattern after storage compared with the initial pattern (moisture stability test) ([2]; 4 weeks at 40°C and a relative humidity of 75%),solubility [3],"hygroscopicity according to the GMSD isotherms [1, 6]","water [1, 6]",SMILES
moderately hygroscopic,≤ 1.9%,essentially identical,–,–,–,–,"COc1ccc(NC(=O)c2ccc(C(=N)N(C)C)cc2)c(C(=O)Nc2ccc(Cl)cn2)c1 [Betrixaban hydrobromide, form B, betrixaban hydrobromide]"
–,–,–,essentially identical,–,–,–,"COc1ccc(NC(=O)c2ccc(C(=N)N(C)C)cc2)c(C(=O)Nc2ccc(Cl)cn2)c1 [Betrixaban hydrochloride, form B, betrixaban hydrochloride]"
–,–,essentially identical,–,> 5000 µg/mL,non-hygroscopic,≤ 0.2%,"COc1ccc(NC(=O)c2ccc(C(=N)N(C)C)cc2)c(C(=O)Nc2ccc(Cl)cn2)c1 [Betrixaban hydrochloride, form A, betrixaban hydrochloride]"
